Activity calls are given as the source filed them. The rule behind the calls is not given here. Numbered stars: 1 amine (or outer) side, 2 acyl side, 3 side chain; on linkers, the order of the positions; unused ones are H or OH. Square brackets hold non-standard residues; d marks the D form. Peptide text beside a SMILES is read from it. * marks the point of attachment. Doxorubicin(3'-N) = COc1cccc2c1C(=O)c1c(O)c3c(c(O)c1C2=O)C[C@@](O)(C(=O)CO)C[C@@H]3O[C@H]1C[C@H](N*)[C@H](O)[C@H](C)O1; Mal(S(CH2)2NH)(CH2)5CO = O=C1CC(SCCN[*:1])C(=O)N1CCCCCC(=O)[*:2]
Legend:
[1] = Octanol-water partition coefficient, log P of the compound at 100 ug after 3 hrs by shake-flask method; format: physicochemical
[2] = Drug uptake in nucleus of human MDA-MB-231 cells at 10 uM after 18 hrs by DAPI staining-based confocal laser scanning microscopic analysis; format: ADME, cell-based; conditions: mda-mb-231, 18 h
MDA-MB-231 [3] = assay: Cytotoxicity against human MDA-MB-231 cells assessed as cell viability after 48 hrs by MTT assay; format: functional, cell-based; conditions: for IC50: MDA-MB-231, 48 h
[4] = Drug uptake in cytoplasm of human MDA-MB-231 cells at 10 uM after 18 hrs by DAPI staining-based confocal laser scanning microscopic analysis; format: ADME, cell-based; conditions: mda-mb-231, 18 h
MDA-MB-231 [5] = assay: Induction of apoptosis in human MDA-MB-231 cells assessed as downregulation of procaspase-3 expression at 1 to 100 uM after 48 hrs by Western blot analysis; format: functional, cell-based
MDA-MB-231 [6] = assay: Induction of apoptosis in human MDA-MB-231 cells assessed as upregulation of cleaved caspase-3 expression after 48 hrs by Western blot analysis; format: functional, cell-based
[7] = Retention time of the compound treated with (6S,9S,12S,15S,18S)-1,6-diamino-12-(2-carboxyethyl)-9-(carboxymethyl)-18-(2-(1-(6-((2S,3S,4S,6R)-3-hydroxy-2-methyl-6-((1S,3S)-3,5,12-trihydroxy-3-(2-hydroxyacetyl)-10-methoxy-6,11-dioxo-1,2,3,4,6,11-hexahydrotetracen-1-yloxy)tetrahydro-2H-pyran-4-ylamino)-6-oxohexyl)-2,5-dioxopyrrolidin-3-ylthio)ethylcarbamoyl)-1-imino-15-isopropyl-7,10,13,16-tetraoxo-2,8,11,14,17-pentaazaicosan-20-oic acid at 100 uM by HPLC analysis in presence of recombinant human caspase-3; format: physicochemical
Mus musculus [8] = assay: Toxicity in Balb-c/nu mouse allografted with mouse SCC7 cells assessed as decrease in body weight at 5 mg/kg molar equivalent of doxorubicin, iv administered daily for 7 days without X-ray treatment measured until day 14; format: organism-based, SCC-7; conditions: in vivo, 168 h
MDA-MB-231 [9] = assay: Cytotoxicity against human MDA-MB-231 cells assessed as cell viability at 0.1 to 100 uM after 48 hrs by MTT assay in presence of recombinant human caspase-3; format: functional, cell-based
MDA-MB-231 [10] = assay: Induction of apoptosis in human MDA-MB-231 cells assessed as change in cell morphology at 5 uM preincubated for 24 hrs followed by exposure to 5 Gy linear X-ray measured after 6 to 24 hrs by DAPI staining-based fluorescence microscopic analysis; format: functional
[11] = Retention time of the compound at 100 uM after 60 mins by HPLC analysis in absence of recombinant human caspase-3; format: physicochemical; conditions: 1 h
[12] = Stability of the compound at 100 uM after 60 mins by HPLC analysis in absence of recombinant human caspase-3; format: physicochemical; conditions: 1 h
[13] = Drug uptake in nucleus of human MDA-MB-231 cells assessed as doxorubicin moiety level at 100 uM using cyanine5.5-labeled compound after 1 hr by DAPI staining-based confocal laser scanning microscopic analysis in presence of recombinant human caspase-3; format: ADME, cell-based; conditions: mda-mb-231, 1 h
MDA-MB-231 [14] = assay: Induction of apoptosis in human MDA-MB-231 cells assessed as upregulation of cleaved caspase-3 expression up to 100 uM after 48 hrs by Western blot analysis; format: functional, cell-based
MDA-MB-231 [15] = assay: Cytotoxicity against human MDA-MB-231 cells assessed as cell viability at 100 uM after 48 hrs by MTT assay in absence of recombinant human caspase-3; format: functional, cell-based
Mus musculus [16] = assay: Toxicity in Balb-c/nu mouse allografted with mouse SCC7 cells assessed as mortality at 5 mg/kg molar equivalent of doxorubicin, iv administered daily for 7 days measured until day 14; format: organism-based, SCC-7; conditions: in vivo, 168 h
MDA-MB-231 [17] = assay: Cytotoxicity against human MDA-MB-231 cells assessed as cell viability up to 10 uM after 48 hrs by MTT assay in absence of recombinant human caspase-3; format: functional, cell-based
MDA-MB-231 [18] = assay: Cytotoxicity against human MDA-MB-231 cells assessed as decrease in cell viability at 5 uM with 5 Gy linear X-ray treatment measured at 48 hrs by MTT assay (reference value: 53%); format: functional
MDA-MB-231 [19] = assay: Induction of apoptosis in human MDA-MB-231 cells assessed as upregulation of cleaved caspase-3 expression preincubated with recombinant human caspase-3 measured after 48 hrs by Western blot analysis; format: functional, cell-based
[20] = Antitumor activity against mouse SCC7 cells allografted in Balb-c/nu mouse assessed as tumor growth inhibition at 5 mg/kg molar equivalent of doxorubicin, iv administered daily for 7 days without X-ray treatment relative to control; format: functional, SCC-7
[21] = Drug uptake in nucleus of human MDA-MB-231 cells assessed as doxorubicin moiety level at 5 uM preincubated for 24 hrs followed by exposure to 5 Gy linear X-ray measured at 6 hrs by DAPI staining-based fluorescence microscopic analysis; format: ADME, cell-based; conditions: mda-mb-231, 6 h
MDA-MB-231 [22] = assay: Cytotoxicity against human MDA-MB-231 cells assessed as decrease in cell viability at 5 uM with 5 Gy linear X-ray treatment after 24 hrs by MTT assay; format: functional, cell-based
MDA-MB-231 [23] = assay: Induction of apoptosis in human MDA-MB-231 cells assessed as downregulation of procaspase-3 expression at 1 to 100 uM preincubated with recombinant human caspase-3 measured after 48 hrs by Western blot analysis; format: functional, cell-based
[24] = Drug uptake in cytoplasm of human MDA-MB-231 cells assessed as DEVD moiety level at 100 uM using cyanine5.5-labeled compound after 1 hr by DAPI staining-based confocal laser scanning microscopic analysis in presence of recombinant human caspase-3; format: ADME, cell-based; conditions: mda-mb-231, 1 h
MDA-MB-231 [25] = assay: Induction of apoptosis in human MDA-MB-231 cells assessed as upregulation of cleaved caspase-3 expression at 1 to 100 uM pretreated with X-ray measured after 24 to 72 hrs by Western blot analysis; format: functional, cell-based
Mus musculus [26] = assay: Toxicity in Balb-c/nu mouse allografted with mouse SCC7 cells assessed as decrease in body weight at 5 mg/kg molar equivalent of doxorubicin, iv administered daily for 7 days with 10 Gy X-ray treatment on first day of drug administration measured until day 14; format: organism-based, SCC-7; conditions: in vivo, 168 h
[27] = Prodrug conversion assessed as 6-(3-(2-aminoethylthio)-2,5-dioxopyrrolidin-1-yl)-N-((2S,3S,4S,6R)-3-hydroxy-2-methyl-6-((1S,3S)-3,5,12-trihydroxy-3-(2-hydroxyacetyl)-10-methoxy-6,11-dioxo-1,2,3,4,6,11-hexahydrotetracen-1-yloxy)tetrahydro-2H-pyran-4-yl)hexanamide formation at 100 uM after 60 mins by HPLC analysis in absence of recombinant human caspase-3; format: physicochemical; conditions: 1 h
[28] = Drug uptake in nucleus of human MDA-MB-231 cells assessed as doxorubicin moiety level at 5 uM preincubated for 24 hrs followed by exposure to 5 Gy linear X-ray measured at 24 hrs by DAPI staining-based fluorescence microscopic analysis; format: ADME, cell-based; conditions: mda-mb-231, 24 h
Caspase-3 = target: T1, Caspase-3 (Homo sapiens, UniProt P42574); assay: Prodrug conversion assessed as recombinant human caspase-3-mediated compound 8 formation at 100 uM after 60 mins by HPLC analysis in presence of caspase-3 inhibitor Ac-DEVD-CHO; format: ADME; conditions: 1 h
T1 sequence (P42574 whole entry): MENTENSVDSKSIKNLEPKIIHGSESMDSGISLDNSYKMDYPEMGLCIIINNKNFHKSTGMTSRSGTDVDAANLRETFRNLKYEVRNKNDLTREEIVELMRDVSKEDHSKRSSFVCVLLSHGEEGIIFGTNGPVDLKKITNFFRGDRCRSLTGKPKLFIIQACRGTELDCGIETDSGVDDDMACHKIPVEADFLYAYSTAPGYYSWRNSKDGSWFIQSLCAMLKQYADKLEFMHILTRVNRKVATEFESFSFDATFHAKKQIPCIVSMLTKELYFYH

[29] = Antitumor activity against mouse SCC7 cells allografted in Balb-c/nu mouse assessed as tumor growth inhibition at 5 mg/kg molar equivalent of doxorubicin, iv administered daily for 7 days with 10 Gy X-ray treatment on first day of drug administration (reference value: 54%); format: functional, SCC-7
Mus musculus [30] = assay: Toxicity in Balb-c/nu mouse allografted with mouse SCC7 cells assessed as mortality at 5 mg/kg, iv administered daily measured within 6 days; format: organism-based, SCC-7; conditions: in vivo, 144 h

COc1cccc2c1C(=O)c1c(O)c3c(c(O)c1C2=O)C[C@@](O)(C(=O)CO)C[C@@H]3O[C@H]1C[C@H](NC(=O)C2CCC(CN3C(=O)CC(SCCN)C3=O)CC2)[C@H](O)[C@H](C)O1 (some centres not stated)
logP at 3 h [1]: -0.022 | Drug uptake [2]: Active | Activity (MDA-MB-231 [3]): Dose-dependent effect | IC50 (MDA-MB-231 [3]): > 100 µM | Drug uptake [4]: Active

COc1cccc2c1C(=O)c1c(O)c3c(c(O)c1C2=O)C[C@@](O)(C(=O)CO)C[C@@H]3O[C@H]1C[C@H](NC(=O)CCCCCN2C(=O)CC(SCCN)C2=O)[C@H](O)[C@H](C)O1 (some centres not stated)
logP at 3 h [1]: -0.383 | Drug uptake [2]: Active | Activity (MDA-MB-231 [5]): Active | Activity (MDA-MB-231 [6]): Dose-dependent effect | Retention_time [7]: 20.6 min | IC50 (MDA-MB-231 [3]): 4.6 µM

COc1cccc2c1C(=O)c1c(O)c3c(c(O)c1C2=O)C[C@@](O)(C(=O)CO)C[C@@H]3O[C@H]1C[C@H](NC(=O)c2cccc(N3C(=O)CC(SCCN)C3=O)c2)[C@H](O)[C@H](C)O1 (some centres not stated)
logP at 3 h [1]: -0.121 | Drug uptake [2]: Active | IC50 (MDA-MB-231 [3]): > 100 µM | Drug uptake [4]: Active

COc1cccc2c1C(=O)c1c(O)c3c(c(O)c1C2=O)C[C@@](O)(C(=O)CO)C[C@@H]3O[C@H]1C[C@H](NC(=O)CCCc2ccc(N3C(=O)CC(SCCN)C3=O)cc2)[C@H](O)[C@H](C)O1 (some centres not stated)
logP at 3 h [1]: 0.313 | Drug uptake [2]: Active | IC50 (MDA-MB-231 [3]): > 100 µM | Drug uptake [4]: Active

COc1cccc2c1C(=O)c1c(O)c3c(c(O)c1C2=O)C[C@@](O)(C(=O)CO)C[C@@H]3O[C@H]1C[C@H](NC(=O)CN2C(=O)CC(SCCN)C2=O)[C@H](O)[C@H](C)O1 (some centres not stated)
logP at 3 h [1]: -1.04 | Drug uptake [2]: Active | IC50 (MDA-MB-231 [3]): > 100 µM | Drug uptake [4]: Active

COc1cccc2c1C(=O)c1c(O)c3c(c(O)c1C2=O)C[C@@](O)(C(=O)CO)C[C@@H]3O[C@H]1C[C@H](NC(=O)CCCCCN2C(=O)CC(SCCNC(=O)[C@H](CC(=O)O)NC(=O)[C@@H](NC(=O)[C@H](CCC(=O)O)NC(=O)[C@H](CC(=O)O)NC(=O)[C@@H](N)CCCNC(=N)N)C(C)C)C2=O)[C@H](O)[C@H](C)O1 (some centres not stated) (H-RDEVD[Mal(S(CH2)2NH)(CH2)5CO]-{Doxorubicin(3'-N)})
Activity (Mus musculus [8]): Non-toxic | Activity (MDA-MB-231 [9]): Active | Activity (MDA-MB-231 [10]): Active | Retention_time [11]: 21.4 min | Drug uptake [2]: Active | Stability [12]: Unstable | Drug uptake [13]: Active | Activity (MDA-MB-231 [14]): inactive | Activity (MDA-MB-231 [15]): Active | Activity (Mus musculus [16]): Non-toxic | Activity (MDA-MB-231 [17]): inactive | Activity (MDA-MB-231 [18]): 75% | Activity (MDA-MB-231 [19]): Dose-dependent effect | TGI [20]: 15% | Drug uptake [21]: Not Active | Activity (MDA-MB-231 [22]): inactive | Activity (MDA-MB-231 [23]): Active | Drug uptake [24]: Active | Activity (MDA-MB-231 [25]): Active | Activity (Mus musculus [26]): Non-toxic | Drug metabolism [27]: metabolite_notdetected | Drug uptake [28]: Active | Drug metabolism (Caspase-3): metabolite_notdetected | TGI [29]: 79% | Drug uptake [4]: Active

COc1cccc2c1C(=O)c1c(O)c3c(c(O)c1C2=O)C[C@@](O)(C(=O)CO)C[C@@H]3O[C@H]1CC(NC(=O)C2CCC(CN3C(=O)CC(SC[C@H](N)C(=O)O)C3=O)CC2)[C@H](O)[C@H](C)O1 (single isomer, unassigned)
Drug uptake [2]: Not Active | Drug uptake [4]: Active

COc1cccc2c1C(=O)c1c(O)c3c(c(O)c1C2=O)C[C@@](O)(C(=O)CO)C[C@@H]3O[C@H]1C[C@H](N)[C@H](O)[C@H](C)O1 [DOXORUBICIN]
Drug uptake [2]: Active | Activity (Mus musculus [30]): Toxic
